Results on three compounds are retold here after patent US20160137685A1, “NUCLEOSIDE PHOSPHORAMIDATES AND PHOSPHORAMIDITES” (priority 2013, published 2016).

For series [1] the following is noted: healthy volunteers, single ascending doses up to 800 mg once daily; cited from earlier work.
A further series deals with AGS gastric cancer cells. As to the kind of experiment: MTT cell viability assay, AGS gastric cancer cells. Format: cell-based. The note with it: 72 hours, 1.0-20 μM (0.01-20 μM), calculated with Compusyn software. The method, then: FIG. 3. Floxphosteridine and floxuridine anticancer activity in vitro against AGS gastric cancer cells. AGS gastric cancer cells were treated with various concentrations (0.01 μM-20 μM) of floxphosteridine and floxuridine for 72 hours, and cell viability was evaluated with MTT cell viability assay.
(§1) We treated three cancer cell lines with various concentrations of Floxphosteridine (compound Ic) and floxuridine for 72 hours. The structure of floxuridine is shown below:
(§2) The SK-HEP-1 and HEPG2 cell lines used in these experiments represent in vitro models for hepatic cancer. The AGS cancer cell line is an in vitro model for gastric cancer.
In FIG. 3, the two compounds were tested for anticancer activity against AGS gastric cancer cells. The cells were treated with various concentrations (1.0-20 μM) of floxphosteridine and floxuridine for 72 hours, and cell viability was evaluated with the MTT assay.

Series [2] concerns SK-HEP-1 hepatic cancer cells. As to the kind of experiment: MTT cell viability assay, SK-HEP-1 hepatic cancer cells. In kind it is cell-based. The note with it: 72 hours, 0.01-20 μM, calculated with Compusyn software. The method, then:
FIG. 1. Floxphosteridine and floxuridine anticancer activity in vitro against SK-HEP-1 hepatic cancer cells. SK-HEP-1 hepatic cancer cells were treated with various concentrations (0.01 μM-20 μM) of floxphosteridine and floxuridine for 72 hours, and cell viability was evaluated with MTT cell viability assay.
as §1, §2
In FIG. 1, SK-HEP-1 hepatic cancer cells were treated with various concentrations (0.01-20 μM) of floxphosteridine and floxuridine for 72 hours, and cell viability was evaluated with the MTT assay.

Series [3] concerns HEPG2 hepatic cancer cells. As to the kind of experiment: MTT cell viability assay, HEPG2 hepatic cancer cells. Format: cell-based. The note with it: 72 hours, 1.0-20 μM, calculated with Compusyn software. The method, then: FIG. 2. Floxphosteridine and floxuridine anticancer activity in vitro against HEPG2 hepatic cancer cells. HEPG2 hepatic cancer cells were treated with various concentrations (1.0 μM-20 μM) of floxphosteridine and floxuridine for 72 hours, and cell viability was evaluated with MTT cell viability assay.
as §1, §2
In FIG. 2, the two compounds were tested for anticancer activity against HEPG2 hepatic cancer cells. The cells were treated with various concentrations (1.0-20 μM) of floxphosteridine and floxuridine for 72 hours, and cell viability was evaluated with the MTT assay.

For the compound `CC(C)OC(=O)[C@H](C)N[P@](=O)(OC[C@H]1O[C@@H](n2ccc(=O)[nH]c2=O)[C@](C)(F)[C@@H]1O)Oc1ccccc1` (racemic) [PSI-7851], in series [1], the safety and tolerability entry is “generally safe and well tolerated, with no dose-limiting toxicities”; the “systemic exposure profile (pharmacokinetic results)” value was “rapid uptake of the drug by the liver and low plasma exposure to the prodrug PSI-7851”.
`CC(C)OC(=O)[C@H](C)N[P@](=O)(OC[C@H]1O[C@@H](n2cc(F)c(=O)[nH]c2=O)C[C@@H]1O)Oc1ccccc1` [floxphosteridine]: the IC50 (in general, the midpoint of a concentration-inhibition curve) is 7.26 µM in the series with AGS gastric cancer cells (Homo sapiens); 31.7 µM in series [2] (Homo sapiens, SK-HEP1, SK-HEP-1 cells); 13.3 µM in series [3] (Homo sapiens).
As to floxuridine, the IC50 in the series on AGS gastric cancer cells was 5.71 µM; in series [2] (SK-HEP-1 cells) it was 0.8 µM; in series [3], 10.4 µM.
